Each block holds one molecule with its values, some of them ahead of it.
Assays:
[1] = tested on: monoclonal antibody MV-004; assay: In vitro inhibition assay (ELISA), MV-004 binding to original epitope; parameters: species or system BalbC mice; details: OD at 10 μg peptide compared to original peptide
Experimental: (§1) 2. In vitro inhibition assay (ELISA)
(§2) Different amounts of peptides (concentrations ranging from 10 μg to 0.08 μg; serial dilutions), derived from Phage Display were incubated with the monoclonal antibody that was used for the screening procedure. Peptides diminishing subsequent binding of the antibody to the original epitope coated on ELISA plates were considered as inhibiting in this assay.

[2] = tested on: monoclonal antibody MV-003; assay: In vitro inhibition assay (ELISA), MV-003 binding to original epitope; parameters: species or system BalbC mice; details: OD at 10 μg peptide compared to original peptide
Experimental: as §1, §2

[3] = tested on: full length and/or truncated and modified forms of Aβ; assay: In vivo characterisation of mimotopes: detection of Aβ/truncated/modified forms; parameters: species or system C57/bl6 mice; key: +: All peptides listed in Table 5 mount specific immune reactions against full length and/or truncated and modified forms of Aβ or fragments thereof; details: MV-003 derived mimotopes; mimotope vaccination
Experimental: (§3) Inhibiting as well as non-inhibiting peptides were coupled to KLH and injected into mice (wildtype C57/Bl6 mice; subcutaneous injection into the flank) together with an appropriate adjuvant (aluminium hydroxide). Animals were vaccinated 3-6 times in biweekly intervals and sera were taken biweekly as well. Titers to injected peptides, as well as to an irrelevant peptide were determined with every serum. Furthermore, titers against the recombinant human Aβ protein, and against original peptides were determined respectively. In general sera were analysed by reaction against peptides coupled to Bovine Serum Albumin (BSA) and recombinant full length proteins which were immobilised on ELISA plates. Titers were determined using anti mouse IgG specific antibodies. For detailed results see FIGS. 6, 7 and 8 respectively.
(§4) Female C57/bl6 mice, 5-6 mice per group, were subcutaneously immunized with 30 μg peptide coupled to KLH. Control groups were administered original epitope-KLH conjugates respectively. As adjuvant alum was used (always 1 mg per mouse). […] The in vitro ELISA assay to determine the antibody titer was performed with sera of single mice after each vaccination in a two week interval (see FIGS. 6 and 7 respectively). The wells of the ELISA plate were coated with mimotope-BSA conjugate and an irrelevant peptide-BSA conjugate (negative control). The positive control was performed by reaction of the parental antibody with the respective mimotope-BSA conjugate. The detection was performed with anti-mouse IgG. Additionally, recombinant proteins were immobilised on ELISA plates and sera reacted accordingly. FIGS. 6 to 8 show representative examples for assays used to characterise mimotopes in vivo.

[4] = tested on: monoclonal antibody MV-003; assay: In vitro binding assay (ELISA), parental antibody MV-003; parameters: species or system BalbC mice; details: peptide-BSA on ELISA plate; OD halfmax, dilution factor 1:X of parental AB MV-003
Experimental: (§5) 1. In vitro binding assay (ELISA)
(§6) Peptides derived from Phage Display as well as variants thereof were coupled to BSA and bound to ELISA plates (1 μM; as indicated in the respective figures) and subsequently incubated with the monoclonal antibody that was used for the screening procedure to analyse binding capacity of identified peptides.

Tg2576 AD mouse model = assay: Area occupied by amyloid plaques in Tg2576 mice after mimotope vaccination; format: in vivo; details: Tg2576, 6 s.c. injections at monthly intervals, peptide-KLH conjugate with ALUM; for average area occupied by amyloid plaques: mAb 3A5 staining, control group 0.35%; for reduction of area occupied by amyloid plaques following mimotope treatment: versus control group
[5] = tested on: full length and/or truncated and modified forms of Aβ; assay: In vivo characterisation of mimotopes: detection of Aβ/truncated/modified forms; parameters: species or system C57/bl6 mice; key: +: All peptides listed in Table 4 mount specific immune reactions against full length and/or truncated and modified forms of Aβ or fragments thereof; details: MV-001 derived mimotopes; mimotope vaccination
Experimental: as §3, §4

[6] = tested on: monoclonal antibody MV-001; assay: In vitro binding assay (ELISA), parental antibody MV-001; parameters: species or system C57/Bl6 mice; details: peptide-BSA on ELISA plate; OD halfmax, dilution factor 1:X of parental AB MV-001
Experimental: as §5, §6

[7] = tested on: monoclonal antibody MV-001; assay: In vitro inhibition assay (ELISA), MV-001 binding to original epitope; parameters: species or system C57/Bl6 mice; details: OD at 10 μg peptide compared to original peptide
Experimental: as §1, §2

[8] = molecular target: monoclonal antibody MV-003; assay: ELISA, peptide-BSA coated, MV-003; details: for Binding Capacity: scale: code
[9] = molecular target: monoclonal antibody MV-003; assay: inhibition ELISA; competitor: coated original epitope p4373
[10] = molecular target: monoclonal antibody MV-004; assay: ELISA, peptide-BSA coated, MV-004; details: for Binding Capacity: scale: code
[11] = molecular target: monoclonal antibody MV-004; assay: inhibition ELISA; competitor: coated original epitope p4372; details: for Inhibition Capacity: scale: code

Molecule: ERWHEKC [p4790]
- Inhibition Capacity [1]: 2 (strong inhibition (as original epitope; OD of 10 μg peptide below 2 times of original peptide))

Molecule: EVWHRHC [p4789]
- Inhibition Capacity [1]: 1 (Weaker than original epitope (OD of 10 μg peptide below 5 times of original peptide))

Molecule: EVWHRGC [p4788]
- Inhibition Capacity [1]: 1 (Weaker than original epitope (OD of 10 μg peptide below 5 times of original peptide))

Molecule: EVWHRLQC [p4419]
- Inhibition Capacity [1]: 2 (strong inhibition (as original epitope; OD of 10 μg peptide below 2 times of original peptide))

Molecule: IRYDAPLC [p4397]
- Inhibition Capacity [2]: 1 (Weaker than original epitope (OD of 10 μg peptide below 12 times of original peptide))
- Detection of Aβ/truncated/modified forms [3]: +

Molecule: IRYDMAGC [p4399]
- Detection of Aβ/truncated/modified forms [3]: +

Molecule: ELWHRAC [p4786]
- Inhibition Capacity [1]: 1 (Weaker than original epitope (OD of 10 μg peptide below 5 times of original peptide))

Molecule: ELWHRYPC [p4420]
- Inhibition Capacity [1]: 1 (Weaker than original epitope (OD of 10 μg peptide below 5 times of original peptide))

Molecule: IRWDGGC [p4793]
- Inhibition Capacity [2]: 1 (Weaker than original epitope (OD of 10 μg peptide below 12 times of original peptide))

Molecule: IRWDTPC [p4395]
- average area occupied by amyloid plaques (Tg2576 AD mouse model): 0.21%
- reduction of area occupied by amyloid plaques following mimotope treatment (Tg2576 AD mouse model): 38%
- Inhibition Capacity [2]: 1 (Weaker than original epitope (OD of 10 μg peptide below 12 times of original peptide))
- Detection of Aβ/truncated/modified forms [3]: +

Molecule: ILFRHGC [p4390]
- average area occupied by amyloid plaques (Tg2576 AD mouse model): 0.14%
- reduction of area occupied by amyloid plaques following mimotope treatment (Tg2576 AD mouse model): 60%
- Detection of Aβ/truncated/modified forms [5]: +
- Binding Capacity [6]: 3 (strong binding :>20000)
- Inhibition Capacity [7]: 1 (Weaker than original epitope (OD of 10 μg peptide below 3 times of original peptide))

Molecule: TLHEFRHC [p4715]
- average area occupied by amyloid plaques (Tg2576 AD mouse model): 0.22%
- reduction of area occupied by amyloid plaques following mimotope treatment (Tg2576 AD mouse model): 36%
- Detection of Aβ/truncated/modified forms [5]: +
- Binding Capacity [6]: 3 (strong binding :>20000)
- Inhibition Capacity [7]: 2 (strong inhibition (as original epitope; OD of 10 μg peptide below 2 times of original peptide))

Molecule: ELWHRAFC [p4665]
- Inhibition Capacity [1]: 2 (strong inhibition (as original epitope; OD of 10 μg peptide below 2 times of original peptide))

Molecule: TEFRHKAC [p4753]
- Detection of Aβ/truncated/modified forms [5]: +
- Binding Capacity [6]: 3 (strong binding :>20000)
- Inhibition Capacity [7]: 2 (strong inhibition (as original epitope; OD of 10 μg peptide below 2 times of original peptide))

Molecule: THTDFRHC [p4725]
- Detection of Aβ/truncated/modified forms [5]: +
- Binding Capacity [6]: 3 (strong binding :>20000)
- Inhibition Capacity [7]: 1 (Weaker than original epitope (OD of 10 μg peptide below 3 times of original peptide))

Molecule: IRWDGC [p4792]
- Inhibition Capacity [2]: 1 (Weaker than original epitope (OD of 10 μg peptide below 12 times of original peptide))

Molecule: VRWDVYPC [p4396]
- Detection of Aβ/truncated/modified forms [3]: +

Molecule: EVWHRHQC [p4417]
- Inhibition Capacity [1]: 1 (Weaker than original epitope (OD of 10 μg peptide below 5 times of original peptide))

Molecule: ERWHEKHC [p4418]
- Inhibition Capacity [1]: 2 (strong inhibition (as original epitope; OD of 10 μg peptide below 2 times of original peptide))

Molecule: ADHDFRHC [p4740]
- Detection of Aβ/truncated/modified forms [5]: +
- Binding Capacity [6]: 3 (strong binding :>20000)
- Inhibition Capacity [7]: 1 (Weaker than original epitope (OD of 10 μg peptide below 3 times of original peptide))

B2: p4793 (peptide)
peptide: IRWDGGC
- Binding Capacity [8]: 2
- Inhibition Capacity (code (weaker than original epitope)) [9]: 1

B3: p4786 (peptide)
peptide: ELWHRAC
- Binding Capacity (code (weak binding, OD halfmax 1:<24000)) [10]: 1
- Inhibition Capacity (code (weaker than original epitope)) [11]: 1

B6: p4790 (peptide)
peptide: ERWHEKC
- Binding Capacity (code (weak binding, OD halfmax 1:<24000)) [10]: 1
- Inhibition Capacity [11]: 2

Second part, led by results:

- Binding Capacity [4]: 3 (strong binding :>60000)
Molecule: IRWDQPC [p4756]
- Inhibition Capacity [2]: 1 (Weaker than original epitope (OD of 10 μg peptide below 12 times of original peptide))

- Binding Capacity [6]: 3 (strong binding :>20000)
Molecule: SEFKHGC [p4381]
- average area occupied by amyloid plaques (Tg2576 AD mouse model): 0.11%
- reduction of area occupied by amyloid plaques following mimotope treatment (Tg2576 AD mouse model): 67%
- Detection of Aβ/truncated/modified forms [5]: +
- Inhibition Capacity [7]: 1 (Weaker than original epitope (OD of 10 μg peptide below 3 times of original peptide))

- Binding Capacity [6]: 3 (strong binding :>20000)
Molecule: QSEFKHWC [p4738]
- Detection of Aβ/truncated/modified forms [5]: +
- Inhibition Capacity [7]: 1 (Weaker than original epitope (OD of 10 μg peptide below 3 times of original peptide))

- Binding Capacity [6]: 3 (strong binding :>20000)
Molecule: TSVFRHC [p4383]
- Detection of Aβ/truncated/modified forms [5]: +
- Inhibition Capacity [7]: 1 (Weaker than original epitope (OD of 10 μg peptide below 3 times of original peptide))

- Binding Capacity (code (weak binding, OD halfmax 1:<16000)) [8]: 1
B1: p4396 (peptide)
peptide: VRWDVYPC

- Binding Capacity [10]: 2
- Inhibition Capacity (code (weaker than original epitope)) [11]: 1
B4: p4420 (peptide)
peptide: ELWHRYPC

- Binding Capacity [8]: 3
- Inhibition Capacity ([9]; scale: code): 2
B5: p4728 (peptide)
peptide: IRWDTSLC

- Binding Capacity [10]: 2
- Inhibition Capacity [11]: 2
B7: p4665 (peptide)
peptide: ELWHRAFC

- Binding Capacity (code (weak binding, OD halfmax 1:<24000)) [10]: 1
- Inhibition Capacity (code (weaker than original epitope)) [11]: 1
B8: p4789 (peptide)
peptide: EVWHRHC

- Binding Capacity [8]: 3
- Inhibition Capacity (code (weaker than original epitope)) [9]: 1
B9: p4756 (peptide)
peptide: IRWDQPC

- Binding Capacity [10]: 3
- Inhibition Capacity [11]: 2
B10: p4418 (peptide)
peptide: ERWHEKHC

- Binding Capacity (code (weak binding, OD halfmax 1:<24000)) [10]: 1
- Inhibition Capacity (code (weaker than original epitope)) [11]: 1
B11: p4788 (peptide)
peptide: EVWHRGC

- Binding Capacity (code (weak binding, OD halfmax 1:<16000)) [8]: 1
- Inhibition Capacity (code (weaker than original epitope)) [9]: 1
B12: p4792 (peptide)
peptide: IRWDGC

- Binding Capacity [10]: 3
- Inhibition Capacity [11]: 2
B13: p4419 (peptide)
peptide: EVWHRLQC

- Binding Capacity [10]: 2
- Inhibition Capacity (code (weaker than original epitope)) [11]: 1
B14: p4417 (peptide)
peptide: EVWHRHQC

- Binding Capacity (code (weak binding, OD halfmax 1:<16000)) [8]: 1
B15: p4399 (peptide)
peptide: IRYDMAGC

- Binding Capacity [8]: 2
- Inhibition Capacity (code (weaker than original epitope)) [9]: 1
B16: p4395 (peptide)
peptide: IRWDTPC

- Binding Capacity (code (weak binding, OD halfmax 1:<16000)) [8]: 1
- Inhibition Capacity (code (weaker than original epitope)) [9]: 1
B17: p4397 (peptide)
peptide: IRYDAPLC

— patent publication US8613931B2, “Compounds for treating beta-amyloidoses” (Affiris AG, priority 2008, dated 2013)
